The compound `COCC(COC)Nc1cc(C)nn2c(-c3ccc(Cl)cc3Cl)c(C)cc12` [Example 2, 7-(2,4-dichlorophenyl)-N-[2-methoxy-1-(methoxymethyl)ethyl]-2,6-dimethylpyrrolo[1,2-b]pyridazin-4-amine] yielded a melting point of 154 to 155 °C.

In the case of `CCC(CC)Nc1cc(C)nn2c(-c3ccc(Cl)cc3Cl)c(C)cc12` [Example 1, 7-(2,4-dichlorophenyl)-N-(1-ethylpropyl)-2,6-dimethylpyrrolo[1,2-b]pyridazin-4-amine], the melting point was 115 to 118 °C.

(Values after patent US7074791B2, “Pyrrolo[1,2-b]pyridazine compounds and their uses” (Pfizer Inc., priority 2002, dated 2006).)
